We go through one compound from patent US12492169B2, “Aminopyridine compound and application thereof” (priority 2020, dated 2025).

The test system of series [1] is Candida albicans WX-CA009. Nature of the series: Minimum inhibitory concentration (MIC) test against fungi. The class given is cell-based. As to conditions: Candida albicans, WXCA009, 24 h, ≥50% growth inhibition by eye, three independent experiments, read-out: MIC. How it is done: (§1) To test the minimum inhibitory concentration (MIC) and minimum effective concentration (MEC) of the drug against fungi.
(§2) Experimental strains: Candida parapsilosis ATCC 22019; Candida albicans ATCC MYA-2876; Candida albicans WX-CA009; Candida glabrata ATCC15126; Candida tropicalis ATCC 750;
(§3) Test medium: RPMI1640 (containing 0.165 M MOPS, pH7.0)
(§4) On the day of the experiment, the compound in the bottle was dissolved in 100% DMSO to a stock solution concentration of 6.24 mg/mL. Then, the mixture was 10-fold diluted with DMSO to 0.624 mg/mL for use.
(§5) A 2-fold gradient dilution of the compound solution (0.624 mg/mL) was performed using DMSO on a 96-microwell plate (V-bottom) to obtain 100× working solutions (wells 1 to 11). 624, 312, 156, 78, 39, 20, 10, 5, 2.5, 1.25, 0.625 μg/mL. 100% DMSO was used as a positive control (well 12). This was the compound stock plate.
(§6) Candida parapsilosis ATCC 22019 and Candida albicans ATCC MYA-2876; Candida albicans WX-CA009; Candida glabrata ATCC15126; Candida tropicalis ATCC 750 frozen at −80° C. were streaked on SDA plates and incubated aerobically in a 35±2° C. incubator for 24 hours.
(§7) On the day of the experiment, for strains Candida parapsilosis ATCC 22019, Candida albicans ATCC MYA-2876; Candida albicans WX-CA009; Candida glabrata ATCC15126; Candida tropicalis ATCC 750 and Cryptococcus neoformans H99 ATCC 208821, the plates were taken out and the clones on the plates were picked, suspended in normal saline, and then the turbidity of the fungal suspension was adjusted to OD600=0.2 using a turbidimeter. The fungal suspension contained about 3.0×10^6 CFU/mL. Then the turbidity-adjusted fungal suspension was diluted with a test medium to a concentration of about 3.0×10^3 CFU/mL. This was the inoculum.
(§8) 2 μL of 100× working solution from the compound stock plate (prepared in 3.1) was transferred to a round-bottomed 96-well plate (containing 98 μL of test medium), and then 100 μL of fungus inoculum (prepared in 3.2) was added to each well to obtain a MIC test plate. Therefore, the final test concentrations of the compounds were 6.24, 3.12, 1.56, 0.78, 0.39, 0.20, 0.10, 0.05, 0.025, 0.0125, 0.006 μg/mL. 1% DMSO was used as a growth control.
(§9) For strains Candida parapsilosis ATCC 22019; Candida albicans ATCC MYA-2876; Candida albicans WX-CA009; Candida glabrata ATCC15126; Candida tropicalis ATCC 750, all test plates were incubated aerobically in a 35±2° C. incubator for 24 hours.
(§10) After incubation, according to the criteria in Table 1 below, the test plate was observed by eye or microscope to determine the MIC (g/mL) and MEC (g/mL) of the test compound against yeast and mold.

For series [2], the system named is Candida glabrata ATCC15126. The description is as above. The series is classed as cell-based. As to conditions: ≥50% growth inhibition by eye, three independent experiments. As for the experimental part:
as §1, §2, §3, §4, §5, §6, §7, §8, §9, §10

For series [3], the system named is Candida parapsilosis ATCC 22019. The description is as above. The class given is cell-based. As to conditions: Lodderomyces parapsilosis, ATCC22019, 24 h, ≥50% growth inhibition by eye, three independent experiments (1st, 2nd, 3rd time), read-out: MIC. As for the experimental part: as §1, §2, §3, §4, §5, §6, §7, §8, §9, §10
A short description of series [4]: Mouse pharmacokinetic evaluation, intraperitoneal injection after oral ABT. The class given is in vivo. As to conditions: ip, female CD-1 mice, 26 mpk, ABT 50 mg/kg orally 2 hours before, plasma. The source says: Experimental Purpose: Using female CD-1 mice as test animals, LC/MS/MS was used to measure the plasma drug concentration at different times after intraperitoneal injection of the test compound. To study the pharmacokinetic behavior of the test compound in mice and evaluate its pharmacokinetic characteristics. Drug preparation: An appropriate amount of sample was weighed and then prepared into a clear or suspended solution. Administration scheme: Two healthy female CD-1 mice were taken, purchased from Beijing Vital River Laboratory Animal Technology Co., Ltd., and given a normal diet. The drug was administered through intraperitoneal injection. Operational steps: 2 hours before administration, 1-aminobenzotriazole (ABT) was orally administered (50 mg/kg, 5 mg/mL in normal saline), and after animal administration, about 30 μL of blood was collected at 0.083, 0.25, 0.5, 1, 2, 4, 8, and 24 hours, and placed in commercially available anticoagulant tubes pre-added with EDTA-K2. The tubes were centrifuged for 10 minutes to separate the plasma, and the plasma was stored at −60° C. The content of the target compound in the plasma sample was determined by LC/MS/MS method, and the experimental results are shown in Table 3.

Series [5] can be described thus: Pharmacokinetic evaluation in mice (IV). The series is classed as in vivo, CD-1 mice. As to conditions: CD-1, plasma, 1 mg/kg, Mouse, 1 mpk. The source says:
Experimental Purpose: To evaluate the druggability of the compounds by measuring its pharmacokinetic properties in different animal species.
Experimental materials: CD-1 mice, Sprague-Dawley strain rats, beagle dogs, and crab-eating macaques.
Drug preparation: An appropriate amount of sample was weighed and then prepared into a clear or suspended solution.
Experimental procedure: The animal pharmacokinetic characteristics after intravenous injection and oral administration of the compound were tested using a standard protocol. The candidate compound was prepared as a clear solution (for intravenous injection) or a homogeneous suspension (for oral administration) during the experiment and administered to the animals as a single dose. Whole blood samples were collected at 0.083, 0.25, 0.5, 1, 2, 4, 8, and 24 hours, centrifuged at 3200 g for 10 minutes to separate the supernatant to obtain plasma samples. The plasma concentration was quantitatively analyzed by LC-MS/MS analysis method and pharmacokinetic parameters were calculated, such as peak concentration, peak time, clearance rate, half-life, area under the drug-time curve, etc.

The test system of series [6] is Candida albicans ATCC MYA-2876. Nature of the series: Mouse candidemia efficacy model. The class given is in vivo. As to conditions: female CD-1 mice infected with Candida albicans ATCC MYA-2876. How it is done:
Experimental animals: female CD-1 mice, 7 weeks old, 27 to 29 g, n=5 or 8;
microbial pathogen: Candida albicans ATCC MYA-2876;
inoculation level and route: 2.0 to 4.0E+05 CFU/mouse, infected by tail vein injection;
treatment: The treatment started at 1 hour after infection. Firstly, ABT was administered orally, and 2 hours later, the test compound was injected intraperitoneally once a day for 7 days in total, with an administration volume of 10 mL/kg.
Observation indicators: Changes in body weight and mortality within 7 days after infection in each group of mice.

The structures appear in SMILES notation. In brackets after ≈: the same amount, converted by molar mass. Read-outs that look alike come from different tables or passages of the source.

One may read the MIC as the lowest concentration found to suppress growth. By Tmax is commonly meant the time from dosing to the highest level. In general, Vd refers to a proportionality between amount in the body and measured concentration, not a real space. Low values mean confinement near the circulation, high ones extensive tissue distribution. As usually defined, the clearance is the rate of elimination divided by the concentration. High values mean efficient removal, low ones inefficient removal. By half-life is commonly meant the time in which the quantity being followed falls by half. The low end stands for rapid decline, the high end for slow decline.

For the compound `Nc1ccc(C#CCc2ccc(COc3ccccn3)cc2)cn1` [WX004], the MIC in series [1] is 0.025 µg/mL (≈ 0.0793 µM); in series [2] (Nakaseomyces glabratus, ATCC15126, 24 h, read-out: MIC), 0.39 µg/mL (≈ 1.24 µM); in series [2] (24 hours) it was 0.78 µg/mL (≈ 2.47 µM); in series [3], 0.05 µg/mL (≈ 0.159 µM). Moreover, the AUC in series [4] (read-out: Concentration Integral AUC) was 305 µM·h; in series [5], 2 µM·h. Further, in series [4] (read-out: Peak Concentration Cmax), the Cmax is 19 µM. Also, the time to peak (Tmax) in series [4] (read-out: Peak Time Tmax) was determined as 1 h. This compound also had a Vd in series [5] of 5.2 L/kg. The same compound displayed a clearance in series [5] of 28 mL/min/kg. The half-life in series [5] was 2.1 h. The “protection from death caused by candidemia” value in series [6] (26 mg/kg intraperitoneally once a day for 7 days after 50 mg/kg ABT orally, n=5) was “completely protect”. The survival rate in series [6] (6 mpk intraperitoneally once a day for 7 days after ABT orally, n=8) is listed as 100%.
